Results as given in paper PMC4121097, “Glioma-Associated Antigen HEATR1 Induces Functional Cytotoxic T Lymphocytes in Patients with Glioma” (Journal of Immunology Research, 2014).

How the values were obtained:
[1] = biological target: T1, HLA-A∗02:01 on T2 cells (Homo sapiens, UniProt P04439, D140Y/D185E/D98H/E176V/E277Q/G131W/G231S/I119V/I121R/I166T/I218V/L300P/L318F/N151K/N90K/P208A/P217A/Q86G/Q94H/R138H/R169H/T345S); assay: T2-cell-peptide binding test (peptide-induced HLA-A∗02:01 expression, flow cytometry); details: peptide 20 μg/mL; for percentage of MFI increase of HLA-A∗02:01: 4 h in SFM, BB7.2 anti-HLA-A∗02:01 mAb, mean ± SE of three independent experiments, SEM; for affinity for binding to HLA-A∗02 (in words): 4 h, Figure 2(b)
T1 construct: measuring peptide-induced expression of HLA-A∗02:01 on T2 cells using flow cytometry; host or cells: T2 cells (human, TAP1/TAP2-deficient)
Protocol: The binding activity of selected peptides to the HLA-A∗02 molecule was determined semiquantitatively by measuring peptide-induced expression of HLA-A∗02:01 on T2 cells using flow cytometry. The T2 cells were incubated for 4 h with the candidate peptides, respectively, at a concentration of 20 μg/mL in SFM. After being washed with phosphate buffered saline-fetal calf serum (PBS-FCS), the T2 cells were incubated with supernatant containing murine mAb against HLA-A∗02:01 derived from BB7.2 cells for 30 min at 4°C. The T2 cells were washed twice with PBS-FCS and stained with 5 μg/mL diluted fluorescein isothiocyanate-conjugated immunoglobulin G which reacts to mouse immunoglobulin for 30 min. The cells were then rinsed three times with PBS-FCS and analyzed using a FACSAria flow cytometer. The percent mean fluorescence index (% MFI) increase of HLA-A∗02:01 molecules was calculated as follows: % MFI increase = [(MFI with peptide − MFI without peptide)]/(MFI without peptide) × 100 [27].

[2] = test system: PBMCs from healthy donors and patients with glioma; assay: IFN-γ ELISpot assay with PBMCs; format: cell-based, human; details: PBMCs from five HLA-A∗02+ patients with GBM and one control patient with benign tumor, Figure 4
Protocol: A human IFN-γ ELISpot kit (552138; BD Pharmingen, CA) was used to quantify the CTL response in PBMCs. Several 96-well plates were coated with purified anti-human IFN-γ monoclonal antibodies at the concentration of 5 μg/mL at 100 μL/well and incubated at 4°C overnight and then washed once with 200 μL/well of RPMI-1640 containing 10% FBS and 1% penicillin-streptomycin-L-glutamine (R10) and blocked with 200 μL/well R10 for 2 h at room temperature. PBMCs were then washed twice with R10 and resuspended in R10 complete culture medium. After being counted, the cells were then adjusted to the concentration of 1 × 10^6 cells/mL and plated onto a 96-well ELISpot plate at 50 μL/well (5 × 10^4 cells/well) with the addition of 50 μL of the peptide. The final concentration of each peptide was 5 μg/mL. The 96-well ELISpot plates were incubated for about 20 h at 37°C in 5% CO2. After incubation, the ELISpot plates were developed according to the kit instructions. Finally, the plates were air-dried and the resulting spots were counted with ChampSpot IV Bioreader (Beijing SAGE Creation Science, Beijing, China). Peptide-specific IFN-γ ELISpot responses were considered positive only when the number of spots was twofold greater than the control peptide stimulation and there were >50 spots per 1 × 10^6 PBMCs.

Row | percentage of MFI increase of HLA-A∗02:01 [1] [%] | affinity for binding to HLA-A∗02 (in words) [1] | Sequence | ELISpot response to individual peptide (in words) [2]
1 | 285.2 ± 49.2 | – | LLPESIPFL [HEATR1_2102–2110] | –
2 | – | lowest affinity | FLWILLILL [HEATR1_1411–1419] | –
3 | – | lower affinity | FLFDTQHFI [HEATR1_2003–2011] | –
4 | 287.2 ± 7.7 | – | KLLRMLFDL [HEATR1_1126–1134] | higher than the others
5 | 228.7 ± 5.4 | – | LMLDRGIPV [HEATR1_757–765] | highest ELISpot response
6 | 308.5 ± 4.8 | highest affinity | KMVEDLISV [HEATR1_682–690] | higher than the others
